# In patent US5399543A, “3-[4-(phenylmethoxy)phenyl]-1-substituted-6-haloalkyl-uracil herbicides” (FMC Corporation, priority 1993, dated 1995):
# Columns and labels:
# Corn [1] = experiment: Preemergence herbicidal activity, corn; format: in vivo, Zea mays var. Agway 425X; settings: Zea mays, pre-emergence, 0.3 kg/ha, after 17-21 days, read-out: Preemergence herbicidal activity (% control), Corn
# Method: (§1) The 3-[4-(phenylmethoxy)phenyl]-1-substituted-6-haloalkyluracil herbicides of this invention were tested for pre- and postemergence herbicidal activity using a variety of crops and weeds. The test plants included soybean (Glycine max var. Williams), field corn (Zea mays var. Agway 425X), wheat (Triticum aestivum var. Wheaton), morningglory (Ipomea lacunosa or Ipomea hederacea), velvetleaf (Abutilon theophrasti), green foxtail (Setaria viridis), Johnsongrass (Sorghum halepense), blackgrass (Aloepecurus myosuroides), common chickweed (Stellaria media), and common cocklebur (Xanthium pensylvanicum).
# (§2) For preemergence testing, two disposable fiber flats (8 cm×15 cm×25 cm) for each rate of application of each candidate herbicide were filled to an approximate depth of 6.5 cm with steam-sterilized sandy loam soil. The soil was leveled and impressed with a template to provide five evenly spaced furrows 13 cm long and 0.5 cm deep in each flat. Seeds of soybean, wheat, corn, green foxtail, and johnsongrass were planted in the furrows of the first flat, and seeds of velvetleaf, morningglory, common chickweed, cocklebur, and blackgrass were planted in the furrows of the second flat. The five-row template was employed to firmly press the seeds into place. A topping soil of equal portions of sand and sandy loam soil was placed uniformly on top of each flat to a depth of approximately 0.5 cm. Flats for postemergence testing were prepared in the same manner except that they were planted 8-12 days prior to the preemergence flats and were placed in a greenhouse and watered, thus allowing the seeds to germinate and the foliage to develop.
# (§3) In both pre- and postemergence tests, a stock solution of the candidate herbicide was prepared by dissolving 0.27 g of the compound in 20 mL of water/acetone (50/50) containing 0.5% v/v sorbitan monolaurate. For an application rate of 3000 g/ha of herbicide a 10 mL portion of the stock solution was diluted with water/acetone (50/50) to 45 mL.
# (§4) The preemergence flats were initially subjected to a light water spray. The four flats were placed two by two along a conveyor belt (i.e., the two preemergence followed by the two postemergence flats). The conveyor belt fed under a spray nozzle mounted about ten inches above the postemergent foliage. The preemergent flats were elevated on the belt so that the soil surface was at the same level below the spray nozzle as the foliage canopy of the postemergent plants. The spray of herbicidal solution was commenced and once stabilized, the flats were passed under the spray at a speed to receive a coverage equivalent of 1000 L/ha. At this coverage the application rates are those shown in the above table for the individual herbicidal solutions. The preemergence flats were watered immediately thereafter, placed in the greenhouse and watered regularly at the soil surface. The postemergence flats were immediately placed in the greenhouse and not watered until 24 hours after treatment with the test solution. Thereafter they were regularly watered at ground level. After 17-21 days the plants were examined and the phytotoxicity data were recorded.
# (§5) Herbicidal activity data at selected application rates are given for various compounds of this invention in Table 2 and Table 3. The test compounds are identified by numbers which correspond to those in Table 1.
# (§6) Phytotoxicity data were taken as percent control. Percent control was determined by a method similar to the 0 to 100 rating system disclosed in "Research Methods in Weed Science," 2nd ed., B. Truelove, Ed.; Southern Weed Science Society; Auburn University, Auburn, Ala., 1977.
# Soybean [2] = experiment: Postemergence herbicidal activity, soybean; format: in vivo, Glycine max var. Williams; settings: Glycine max, post-emergence, 0.3 kg/ha, after 17-21 days, read-out: Postemergence herbicidal activity (% control), Soybean
# Method: as §1, §2, §3, §4, §5, §6
# Velvetleaf [3] = experiment: Preemergence herbicidal activity, velvetleaf; format: in vivo; settings: Abutilon theophrasti, pre-emergence, 0.3 kg/ha, after 17-21 days, read-out: Preemergence herbicidal activity (% control), Velvetleaf
# Method: as §1, §2, §3, §4, §5, §6
# Cocklebur [4] = experiment: Postemergence herbicidal activity, cocklebur; format: in vivo, Xanthium pensylvanicum; settings: Xanthium strumarium, post-emergence, 0.3 kg/ha, after 17-21 days, read-out: Postemergence herbicidal activity (% control), Cocklebur
# Method: as §1, §2, §3, §4, §5, §6
# Cocklebur [5] = experiment: Preemergence herbicidal activity, cocklebur; format: in vivo, Xanthium pensylvanicum; settings: Xanthium strumarium, pre-emergence, 0.3 kg/ha, after 17-21 days, read-out: Preemergence herbicidal activity (% control), Cocklebur
# Method: as §1, §2, §3, §4, §5, §6
# Chickweed [6] = experiment: Postemergence herbicidal activity, chickweed; format: in vivo; settings: Stellaria media, post-emergence, 0.3 kg/ha, after 17-21 days, read-out: Postemergence herbicidal activity (% control), Chickweed
# Method: as §1, §2, §3, §4, §5, §6
# Wheat [7] = experiment: Preemergence herbicidal activity, wheat; format: in vivo, Triticum aestivum var. Wheaton; settings: Triticum aestivum, pre-emergence, 0.3 kg/ha, after 17-21 days, read-out: Preemergence herbicidal activity (% control), Wheat
# Method: as §1, §2, §3, §4, §5, §6
# Corn [8] = experiment: Postemergence herbicidal activity, corn; format: in vivo, Zea mays var. Agway 425X; settings: Zea mays, post-emergence, 0.3 kg/ha, after 17-21 days, read-out: Postemergence herbicidal activity (% control), Corn
# Method: as §1, §2, §3, §4, §5, §6
# Chickweed [9] = experiment: Preemergence herbicidal activity, chickweed; format: in vivo; settings: Stellaria media, pre-emergence, 0.3 kg/ha, after 17-21 days, read-out: Preemergence herbicidal activity (% control), Chickweed
# Method: as §1, §2, §3, §4, §5, §6
# Morningglory [10] = experiment: Postemergence herbicidal activity, morningglory; format: in vivo, Ipomea lacunosa or Ipomea hederacea; settings: Ipomoea, post-emergence, 0.3 kg/ha, after 17-21 days, read-out: Postemergence herbicidal activity (% control), Morningglory
# Method: as §1, §2, §3, §4, §5, §6
# Green foxtail [11] = experiment: Preemergence herbicidal activity, green foxtail; format: in vivo; settings: Setaria viridis, pre-emergence, 0.3 kg/ha, after 17-21 days, read-out: Preemergence herbicidal activity (% control), Green foxtail
# Method: as §1, §2, §3, §4, §5, §6
# Soybean [12] = experiment: Preemergence herbicidal activity, soybean; format: in vivo, Glycine max var. Williams; settings: Glycine max, pre-emergence, 0.3 kg/ha, after 17-21 days, read-out: Preemergence herbicidal activity (% control), Soybean
# Method: as §1, §2, §3, §4, §5, §6
# Johnsongrass [13] = experiment: Preemergence herbicidal activity, johnsongrass; format: in vivo; settings: Sorghum halepense, pre-emergence, 0.3 kg/ha, after 17-21 days, read-out: Preemergence herbicidal activity (% control), Johnsongrass
# Method: as §1, §2, §3, §4, §5, §6
# Morningglory [14] = experiment: Preemergence herbicidal activity, morningglory; format: in vivo, Ipomea lacunosa or Ipomea hederacea; settings: Ipomoea, pre-emergence, 0.3 kg/ha, after 17-21 days, read-out: Preemergence herbicidal activity (% control), Morningglory
# Method: as §1, §2, §3, §4, §5, §6
# Velvetleaf [15] = experiment: Postemergence herbicidal activity, velvetleaf; format: in vivo; settings: Abutilon theophrasti, post-emergence, 0.3 kg/ha, after 17-21 days, read-out: Postemergence herbicidal activity (% control), Velvetleaf
# Method: as §1, §2, §3, §4, §5, §6
# Johnsongrass [16] = experiment: Postemergence herbicidal activity, johnsongrass; format: in vivo; settings: Sorghum halepense, post-emergence, 0.3 kg/ha, after 17-21 days, read-out: Postemergence herbicidal activity (% control), Johnsongrass
# Method: as §1, §2, §3, §4, §5, §6
# Green foxtail [17] = experiment: Postemergence herbicidal activity, green foxtail; format: in vivo; settings: Setaria viridis, post-emergence, 0.3 kg/ha, after 17-21 days, read-out: Postemergence herbicidal activity (% control), Green foxtail
# Method: as §1, §2, §3, §4, §5, §6
# Blackgrass [18] = experiment: Preemergence herbicidal activity, blackgrass; format: in vivo, Aloepecurus myosuroides; settings: Alopecurus myosuroides, pre-emergence, 0.3 kg/ha, after 17-21 days, read-out: Preemergence herbicidal activity (% control), Blackgrass
# Method: as §1, §2, §3, §4, §5, §6
# Wheat [19] = experiment: Postemergence herbicidal activity, wheat; format: in vivo, Triticum aestivum var. Wheaton; settings: Triticum aestivum, post-emergence, 0.3 kg/ha, after 17-21 days, read-out: Postemergence herbicidal activity (% control), Wheat
# Method: as §1, §2, §3, §4, §5, §6
# Blackgrass [20] = experiment: Postemergence herbicidal activity, blackgrass; format: in vivo, Aloepecurus myosuroides; settings: Alopecurus myosuroides, post-emergence, 0.3 kg/ha, after 17-21 days, read-out: Postemergence herbicidal activity (% control), Blackgrass
# Method: as §1, §2, §3, §4, §5, §6
SMILES,activity at 300 g/ha (Corn [1]) [%],activity at 300 g/ha (Soybean [2]) [%],activity at 300 g/ha (Velvetleaf [3]) [%],activity at 300 g/ha (Cocklebur [4]) [%],activity at 300 g/ha (Cocklebur [5]) [%],activity at 300 g/ha (Chickweed [6]) [%],activity at 300 g/ha (Wheat [7]) [%],activity at 300 g/ha (Corn [8]) [%],activity at 300 g/ha (Chickweed [9]) [%],activity at 300 g/ha (Morningglory [10]) [%],activity at 300 g/ha (Green foxtail [11]) [%],activity at 300 g/ha (Soybean [12]) [%],activity at 300 g/ha (Johnsongrass [13]) [%],activity at 300 g/ha (Morningglory [14]) [%],activity at 300 g/ha (Velvetleaf [15]) [%],activity at 300 g/ha (Johnsongrass [16]) [%],activity at 300 g/ha (Green foxtail [17]) [%],activity at 300 g/ha (Blackgrass [18]) [%],activity at 300 g/ha (Wheat [19]) [%],activity at 300 g/ha (Blackgrass [20]) [%]
COc1ccc(COc2ccc(-n3c(=O)cc(C(F)(F)F)n(C)c3=O)cc2)cc1 [Compound 44],0,40,100,50,25,20,10,30,20,90,60,40,10,100,40,50,70,20,10,50
COc1ccccc1COc1ccc(-n2c(=O)cc(C(F)(F)F)n(C)c2=O)cc1 [Compound 40],75,90,100,100,20,15,20,50,80,90,100,50,100,100,100,90,100,30,20,10
Cn1c(C(F)(F)F)cc(=O)n(-c2ccc(OCc3ccc(C(F)(F)F)cc3)cc2)c1=O [Compound 22],30,50,100,40,50,15,0,20,100,95,100,90,70,90,40,80,90,15,20,30
"Cn1c(C(F)(F)F)cc(=O)n(-c2ccc(OCc3ccc(Cl)cc3)cc2F)c1=O [Compound 10, 3-[4-(4-Chlorophenylmethoxy)-2-fluorophenyl]-1-methyl-6-trifluoromethyluracil]",20,95,100,100,100,100,20,50,100,100,100,100,95,100,100,95,100,50,10,40
Cn1c(C(F)(F)F)cc(=O)n(-c2ccc(OCc3cccc(Cl)c3)cc2)c1=O [Compound 3],10,45,80,100,0,70,0,60,0,90,95,10,20,10,100,90,95,0,10,0
Cn1c(C(F)(F)F)cc(=O)n(-c2ccc(OCc3cccc(Cl)c3Cl)cc2)c1=O [Compound 42],0,25,80,35,0,0,0,30,0,,60,0,30,70,90,50,50,0,0,0
"Cn1c(C(F)(F)F)cc(=O)n(-c2ccc(OCc3ccc(Cl)cc3)cc2)c1=O [Compound 4, 3-[4-(4-Chlorophenylmethoxy)phenyl]-1-methyl-6-trifluoromethyluracil]",30,95,100,100,30,100,10,50,100,100,100,60,95,90,95,0,80,50,0,0
